The values that follow come from patent US20220153745A1, “DISUBSTITUTED BENZOTHIENYL-PYRROLOTRIAZINES AND THEIR USE AS FGFR KINASE INHIBITORS” (Bayer Intellectual Property GmbH, priority 2011, published 2022).

Structures can show the parent of a compound that is named as a salt.

This assay has as its target T1, mTOR (Homo sapiens, UniProt P42345).
T1 construct: human mTOR amino acids from 1360 to 2549; purchased Invitrogen 4753; host or cells: insect cells
In words: mTOR kinase assay (TR-FRET, for comparative purposes). It counts as biochemical. The note with it: for inhibition at 1 µM: read-out: mTOR % inhibition @ 1 μM, mean inhibition at 1 μM test compound, 40 μM ATP; for mTOR % inhibition @ 1 μM: mean inhibition at 1 μM test compound, 40 μM ATP.

T1 sequence (P42345 1360-2549): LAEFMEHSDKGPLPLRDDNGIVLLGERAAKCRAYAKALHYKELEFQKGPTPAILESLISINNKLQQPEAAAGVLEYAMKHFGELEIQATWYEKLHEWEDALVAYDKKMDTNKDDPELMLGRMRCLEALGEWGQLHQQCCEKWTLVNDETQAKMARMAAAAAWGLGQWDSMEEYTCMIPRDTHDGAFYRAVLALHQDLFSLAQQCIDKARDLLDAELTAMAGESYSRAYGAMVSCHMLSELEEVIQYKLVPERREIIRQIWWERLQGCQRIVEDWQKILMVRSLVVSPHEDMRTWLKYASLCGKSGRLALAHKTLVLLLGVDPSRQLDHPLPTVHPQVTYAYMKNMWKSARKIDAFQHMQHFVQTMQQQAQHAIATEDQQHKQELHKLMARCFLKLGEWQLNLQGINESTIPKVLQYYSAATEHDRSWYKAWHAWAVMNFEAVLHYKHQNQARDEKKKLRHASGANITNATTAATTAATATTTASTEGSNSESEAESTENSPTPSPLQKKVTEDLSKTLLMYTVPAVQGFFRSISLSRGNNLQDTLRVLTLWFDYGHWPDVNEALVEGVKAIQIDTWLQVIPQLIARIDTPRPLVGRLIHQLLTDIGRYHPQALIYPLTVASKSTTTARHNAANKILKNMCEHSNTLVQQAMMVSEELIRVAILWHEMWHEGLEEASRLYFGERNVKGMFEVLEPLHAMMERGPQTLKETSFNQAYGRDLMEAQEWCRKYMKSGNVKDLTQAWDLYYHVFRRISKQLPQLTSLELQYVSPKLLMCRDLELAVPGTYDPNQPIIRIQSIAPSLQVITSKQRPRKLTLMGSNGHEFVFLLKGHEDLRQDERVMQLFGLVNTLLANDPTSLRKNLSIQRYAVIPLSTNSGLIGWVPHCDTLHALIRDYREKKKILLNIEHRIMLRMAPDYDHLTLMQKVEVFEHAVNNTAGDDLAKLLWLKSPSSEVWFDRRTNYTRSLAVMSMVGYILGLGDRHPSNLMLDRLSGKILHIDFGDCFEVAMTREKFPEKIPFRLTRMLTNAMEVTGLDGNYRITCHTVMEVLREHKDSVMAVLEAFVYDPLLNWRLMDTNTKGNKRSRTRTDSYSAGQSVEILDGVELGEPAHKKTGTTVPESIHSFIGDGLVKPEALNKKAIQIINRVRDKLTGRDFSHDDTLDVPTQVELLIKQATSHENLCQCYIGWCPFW

As for `COCc1c(-c2cc3cc(C)cc(OC)c3s2)c2c(N)ncnn2c1CN1CCNC(=O)C1` [Example 1, 4-{[4-Amino-6-(methoxymethyl)-5-(7-methoxy-5-methyl-1-benzothiophen-2-yl)pyrrolo[2,1-f]-[1,2,4]triazin-7-yl]methyl}piperazin-2-one], the inhibition at 1 µM was 8.7%. The same measure, in the same setting: then `CCOCc1c(-c2cc3cc(C)cc(OC)c3s2)c2c(N)ncnn2c1CN[C@H]1CCNC1=O` [Example 93, (3S)-3-({[4-Amino-6-(ethoxymethyl)-5-(7-methoxy-5-methyl-1-benzothiophen-2-yl)pyrrolo[2,1-f]-[1,2,4]triazin-7-yl]methyl}amino)pyrrolidin-2-one], with 12.5%; and `COc1cc(C)cc2cc(-c3c(CO)c(CN4CCNCC4)n4ncnc(N)c34)sc12` [Example 12, [4-Amino-5-(7-methoxy-5-methyl-1-benzothiophen-2-yl)-7-(piperazin-1-ylmethyl)pyrrolo[2,1-f]-[1,2,4]triazin-6-yl]methanol bis(formiate)], with 25.8%; and `COc1cc(C)cc2cc(-c3c(CN4CCCC(O)C4)c(CN4CCNCC4)n4ncnc(N)c34)sc12` (racemic) [Example 40, rac-1-{[4-Amino-5-(7-methoxy-5-methyl-1-benzothiophen-2-yl)-7-(piperazin-1-ylmethyl)pyrrolo[2,1-f][1,2,4]triazin-6-yl]methyl}piperidin-3-ol trihydrochloride], with 0.1%. Still for that read-out and setting: then `CCOCc1c(-c2cc3cc(C)cc(OC)c3s2)c2c(N)ncnn2c1CN1CCNC1=O` [Example 87, 1-{[4-Amino-6-(ethoxymethyl)-5-(7-methoxy-5-methyl-1-benzothiophen-2-yl)pyrrolo[2,1-f][1,2,4]-triazin-7-yl]methyl}imidazolidin-2-one], with 12.7%; and `COCc1c(-c2cc3cccc(OC)c3s2)c2c(N)ncnn2c1CN1CCNC(=O)C1` [Example 88, 4-{[4-Amino-5-(7-methoxy-1-benzothiophen-2-yl)-6-(methoxymethyl)pyrrolo[2,1-f][1,2,4]triazin-7-yl]methyl}piperazin-2-one], with 5.3%; and `CCOCc1c(-c2cc3cc(C)cc(OC)c3s2)c2c(N)ncnn2c1CN1CCNCC1` [Example 19, 6-(Ethoxymethyl)-5-(7-methoxy-5-methyl-1-benzothiophen-2-yl)-7-(piperazin-1-ylmethyl)pyrrolo[2,1-f][1,2,4]triazin-4-amine dihydrochloride], with 17.6%. On the same count and under the same terms, as for `COc1cc(C)cc2cc(-c3c(CN(C)C)c(CN4CCNCC4)n4ncnc(N)c34)sc12` [Example 37, 6-[(Dimethylamino)methyl]-5-(7-methoxy-5-methyl-1-benzothiophen-2-yl)-7-(piperazin-1-ylmethyl)pyrrolo[2,1-f][1,2,4]triazin-4-amine trihydrochloride], the figure is 8.6%. Take `CCOCc1c(-c2cc3cc(C)cc(OC)c3s2)c2c(N)ncnn2c1CN1CCS(=O)(=O)CC1` [Example 99]: the inhibition at 1 µM came to 5.3%. On the same count and under the same terms, as for `CCOCc1c(-c2cc3cc(C)cc(OC)c3s2)c2c(N)ncnn2c1CN1CCNC(=O)C1` [Example 6, 4-{[4-Amino-6-(ethoxymethyl)-5-(7-methoxy-5-methyl-1-benzothiophen-2-yl)pyrrolo[2,1-f][1,2,4]-triazin-7-yl]methyl}piperazin-2-one dihydrochloride], the figure is 0.3%; as for `CCCCOCc1c(-c2cc3cc(C)cc(OC)c3s2)c2c(N)ncnn2c1CN1CCNCC1` [Example 23, 6-(Butoxymethyl)-5-(7-methoxy-5-methyl-1-benzothiophen-2-yl)-7-(piperazin-1-ylmethyl)pyrrolo[2,1-f][1,2,4]triazin-4-amine formiate], 11.6%. As to `COCc1c(-c2cc3cc(C)cc(OC)c3s2)c2c(N)ncnn2c1CN1CCNC(=O)C1.Cl.Cl` [Example 2, 4-{[4-Amino-6-(methoxymethyl)-5-(7-methoxy-5-methyl-1-benzothiophen-2-yl)pyrrolo[2,1-f][1,2,4]triazin-7-yl]methyl}piperazin-2-one dihydrochloride], the “mTOR % inhibition @ 1 μM” value was found to be 7.2%. In the case of `COc1cc(C)cc2cc(-c3c(CN4CCNC(=O)C4)c(C#N)n4ncnc(N)c34)sc12` [Example 71, 4-Amino-5-(7-methoxy-5-methyl-1-benzothiophen-2-yl)-6-[(3-oxopiperazin-1-yl)methyl]pyrrolo[2,1-f][1,2,4]triazine-7-carbonitrile], the inhibition at 1 µM was found to be 0.1%. The same measure, in the same setting: as for `CCOCc1c(-c2cc3cc(C)cc(OC)c3s2)c2c(N)ncnn2c1CN[C@@H]1CCNC1=O` [Example 8, (3R)-3-({[4-Amino-6-(ethoxymethyl)-5-(7-methoxy-5-methyl-1-benzothiophen-2-yl)pyrrolo[2,1-f]-[1,2,4]triazin-7-yl]methyl}amino)pyrrolidin-2-one], the figure is 7.8%. Turning to `COc1cc(C)cc2cc(-c3c(CNCC(C)(C)O)c(C)n4ncnc(N)c34)sc12` [Example 78, 1-({[4-Amino-5-(7-methoxy-5-methyl-1-benzothiophen-2-yl)-7-methylpyrrolo[2,1-f][1,2,4]triazin-6-yl]methyl}amino)-2-methylpropan-2-ol], the “mTOR % inhibition @ 1 μM” value was 5.8%. Regarding `CCOCc1c(-c2cc3cc(C)cc(OC)c3s2)c2c(N)ncnn2c1CN1CCOCC1` [Example 10, 6-(Ethoxymethyl)-5-(7-methoxy-5-methyl-1-benzothiophen-2-yl)-7-(morpholin-4-ylmethyl)pyrrolo[2,1-f][1,2,4]triazin-4-amine], the inhibition at 1 µM is 6%.

With `COc1cc(C)cc2cc(-c3c(CNC(C)=O)c(CN4CCN(C(C)=O)CC4)n4ncnc(N)c34)sc12` [Example 66, N-({7-[(4-Acetylpiperazin-1-yl)methyl]-4-amino-5-(7-methoxy-5-methyl-1-benzothiophen-2-yl)pyrrolo[2,1-f][1,2,4]triazin-6-yl}methyl)acetamide], the inhibition at 1 µM was found to be 15.8%. Same read-out and setting: as for `CCOCc1c(-c2cc3cc(C)cc(OC)c3s2)c2c(N)ncnn2c1Cl` [Example 83, 7-Chloro-6-(ethoxymethyl)-5-(7-methoxy-5-methyl-1-benzothiophen-2-yl)pyrrolo[2,1-f][1,2,4]-triazin-4-amine], the figure is 6.3%; as for `COc1cc(C)cc2cc(-c3c(COC(C)C)c(CN4CCNCC4)n4ncnc(N)c34)sc12` [Example 27, 6-(Isopropoxymethyl)-5-(7-methoxy-5-methyl-1-benzothiophen-2-yl)-7-(piperazin-1-ylmethyl)pyrrolo[2,1-f][1,2,4]triazin-4-amine formiate], 5.9%; as for `COc1cc(C)cc2cc(-c3c(CN4CCNC(=O)C4)c(CN4CCN(C=O)CC4)n4ncnc(N)c34)sc12` [Example 58, 4-({4-Amino-5-(7-methoxy-5-methyl-1-benzothiophen-2-yl)-6-[(3-oxopiperazin-1-yl)methyl]pyrrolo[2,1-f][1,2,4]triazin-7-yl}methyl)piperazine-1-carbaldehyde formiate], 4%. Still for that read-out and setting: as for `CCOCc1c(-c2cc3cc(C)cc(OC)c3s2)c2c(N)ncnn2c1CN1CCN(C(C)=O)CC1` [Example 20, 1-(4-{[4-Amino-6-(ethoxymethyl)-5-(7-methoxy-5-methyl-1-benzothiophen-2-yl)pyrrolo[2,1-f]-[1,2,4]triazin-7-yl]methyl}piperazin-1-yl)ethanone], the figure is 31.3%; as for `COc1cc(C)cc2cc(-c3c(COCC(=O)O)c(CN4CCNCC4)n4ncnc(N)c34)sc12` [Example 32, {[4-Amino-5-(7-methoxy-5-methyl-1-benzothiophen-2-yl)-7-(piperazin-1-ylmethyl)pyrrolo[2,1-f][1,2,4]triazin-6-yl]methoxy}acetic acid], 1.6%. On the same count and under the same terms, then `CCOCc1c(-c2cc3cc(C)cc(OC)c3s2)c2c(N)ncnn2c1CN[C@@H]1CCNC1=O` [Example 7, (3R)-3-({[4-Amino-6-(ethoxymethyl)-5-(7-methoxy-5-methyl-1-benzothiophen-2-yl)pyrrolo[2,1-f]-[1,2,4]triazin-7-yl]methyl}amino)pyrrolidin-2-one dihydrochloride], with 3.1%; and `COc1cc(C)cc2cc(-c3c(COCC4CC4)c(CN4CCNCC4)n4ncnc(N)c34)sc12` [Example 25, 6-[(Cyclopropylmethoxy)methyl]-5-(7-methoxy-5-methyl-1-benzothiophen-2-yl)-7-(piperazin-1-ylmethyl)pyrrolo[2,1-f][1,2,4]triazin-4-amine bis(formiate)], with 3.5%.

As to `COc1cc(C)cc2cc(-c3c(CNC(C)=O)c(CN4CCN(C=O)CC4)n4ncnc(N)c34)sc12` [Example 65, N-({4-Amino-7-[(4-formylpiperazin-1-yl)methyl]-5-(7-methoxy-5-methyl-1-benzothiophen-2-yl)pyrrolo[2,1-f][1,2,4]triazin-6-yl}methyl)acetamide formiate], the inhibition at 1 µM stood at 13.9%. Same read-out and setting: as for `COc1cc(C)cc2cc(-c3c(Cl)c(CN4CCNCC4)n4ncnc(N)c34)sc12` [Example 85, 6-Chloro-5-(7-methoxy-5-methyl-1-benzothiophen-2-yl)-7-(piperazin-1-ylmethyl)pyrrolo[2,1-f]-[1,2,4]triazin-4-amine trihydrochloride], the figure is 0.9%; as for `CCOCc1c(-c2cc3cc(C)cc(OC)c3s2)c2c(N)ncnn2c1C(=O)NCCO` [Example 108], 8.5%. On the same count and under the same terms, as for `COCc1c(-c2cc3cc(C)cc(OC)c3s2)c2c(N)ncnn2c1C#N` [Example 69, 4-Amino-6-(methoxymethyl)-5-(7-methoxy-5-methyl-1-benzothiophen-2-yl)pyrrolo[2,1-f][1,2,4]-triazine-7-carbonitrile], the figure is 8.7%; as for `CCCOCc1c(-c2cc3cc(C)cc(OC)c3s2)c2c(N)ncnn2c1CN1CCNCC1` [Example 24, 5-(7-Methoxy-5-methyl-1-benzothiophen-2-yl)-7-(piperazin-1-ylmethyl)-6-(propoxymethyl)pyrrolo[2,1-f][1,2,4]triazin-4-amine bis(formiate)], 6.3%.
